Like-named read-outs stand apart in the source and are kept apart here.
Columns and labels:
[1] = system: H/1.2 = ras^H Transformed NRKE Cells; conditions: H/1.2 = ras^H transformed NRKE cells, compared with normal NRKE cells
[2] = system: Ovarian Cancer cell lines; assay: NCI in vitro anticancer screen (SRB), ovarian cancer subpanel; conditions: 48 hours exposure; average percent growth over the cell lines
Protocol: (§1) Compounds chosen for the program are initially tested in an in vitro anticancer screen. A total of fifty-five human tumor cell lines, derived from nine cancer types (lung, colon, melanoma, renal, ovarian, brain, prostate, breast and leukemia), are used in this screen. The tumor cells are inoculated over a series of standard 96-well microtiter plates on day 0. These cells are then preincubated on the microtiter plates for 24 hours. The test compounds are added to the wells in five 10-fold dilutions starting from the highest soluble concentration. Each compound is tested against every cell line in the panel. The compounds are incubated for 48 hours with the tumor cell lines. At the termination of the assay, the cells are fixed in situ, washed, and dried. Sulforhodamine B (SRB), a pink anionic dye that binds to the basic amino acids of trichloroacetic acid-fixed cells, is added. The cells are washed again, and the remaining dye is a function of the adherent cell mass. The bound stain is solubilized and measured spectrophotometrically. The data are entered from automatic reading devices into a computer for subsequent storage and analysis.
(§2) The measured effect of each test compound on the cell lines is calculated according to one or the other of the following two expressions:
(§3) If (Mean ODtest−Mean ODtzero)□0, then PG=100×(Mean ODtest−Mean ODtzero)/(Mean ODctrl−Mean ODtzero);
(§4) If (Mean ODtest−Mean ODtzero)<0, then PG=100×(Mean ODtest−Mean ODtzero)/Meantzero;

[3] = system: 3LL = Lewis Lung Carcinoma Cells; assay: cells; conditions: Mus musculus
[4] = NCI toxicity studies, maximum tolerated dose; conditions: mouse, in vivo; mice
Protocol: As a result of its performance in an initial and a repeat cancer screen, compound 55 has been selected for in vivo testing. Compound 55 was chosen primarily because of its selectivity for non-small cell lung cancer. To date, toxicity studies have been performed, and the maximum tolerated dose in mice has been determined to be 400 mg/kg.

[5] = system: N/4.2-NRKE transformed by the human ras^N gene; conditions: N/4.2 = ras^N transformed NRK cells, compared with normal NRKE cells
Colon Cancer cell lines = assay: NCI in vitro anticancer screen (SRB), colon cancer subpanel; conditions: 48 hours exposure; average percent growth over the cell lines
Protocol: as §1, §2, §3, §4

Renal Cancer cell lines = assay: NCI in vitro anticancer screen (SRB), renal cancer subpanel; conditions: 48 hours exposure; average percent growth over the cell lines
Protocol: as §1, §2, §3, §4
(§5) First, a data sheet is provided which lists, for each cell line, the Mean ODtzero, the Mean ODctrl, the Mean ODtest for each of the five concentrations, the calculated PGs for each concentration, and the response parameters G150, TGI, and LC50.
(§6) Third, mean graphs at each of the principal response parameters (GI50, TGI, and LC50) are provided. […] Since the bar scale is logarithmic, a bar two units to the right implies the compound achieved the response parameter (e.g., GI50) for the cell line at a concentration 1/100 the mean concentration required over all cell lines, and thus the cell line is unusually sensitive to that compound. Bars extending to the left correspondingly imply sensitivity less than the mean. Thus, the mean graphs facilitate visual scanning of data for potential patterns of selectivity for particular cell lines or for particular subpanels with respect to a selected response parameter.

[6] = system: Non-Small Cell Lung Cancer cell lines; assay: NCI in vitro anticancer screen (SRB), non-small cell lung cancer subpanel; conditions: for Activity (Average PG for highest dose tested) Non-Small Cell Lung Cancer: 48 hours exposure, average percent growth over the cell lines
Protocol: as §1, §2, §3, §4, §5, §6

[7] = system: K/1 = ras^K Transformed NRKE Cells; assay: cells; conditions: Rattus norvegicus
CNS Cancer cell lines = assay: NCI in vitro anticancer screen (SRB), CNS cancer subpanel; conditions: 48 hours exposure; average percent growth over the cell lines
Protocol: as §1, §2, §3, §4, §5, §6

Melanoma cell lines = assay: NCI in vitro anticancer screen (SRB), melanoma subpanel; conditions: 48 hours exposure; average percent growth over the cell lines
Protocol: as §1, §2, §3, §4, §5, §6

[8] = system: N/4.2-NRKE transformed by the human ras^N gene; assay: cells; conditions: N42, read-out: LC50 N/4.2
[9] = system: Prostate Cancer cell lines; assay: NCI in vitro anticancer screen (SRB), prostate cancer subpanel; conditions: 48 hours exposure; average percent growth over the cell lines
Protocol: as §1, §2, §3, §4

[10] = system: H/1.2 = ras^H Transformed NRKE Cells; assay: cells; conditions: Rattus norvegicus
Leukemia cell lines = assay: NCI in vitro anticancer screen (SRB), leukemia subpanel; conditions: 48 hours exposure; average percent growth over the cell lines
Protocol: as §1, §2, §3, §4, §5, §6

Breast Cancer cell lines = assay: NCI in vitro anticancer screen (SRB), breast cancer subpanel; conditions: 48 hours exposure; average percent growth over the cell lines
Protocol: as §1, §2, §3, §4

[11] = system: 3LL = Lewis Lung Carcinoma Cells; conditions: 3LL = Lewis lung carcinoma cells, compared with normal NRKE cells
[12] = system: K/1 = ras^K Transformed NRKE Cells; conditions: for Differential Index K/1: K/1 = ras^K transformed NRKE cells, compared with normal NRKE cells
[13] = system: human tumor cells in hollow fibers; assay: NCI Hollow Fiber Assay for preliminary in vivo testing; conditions: combined IP+SC score
Protocol: For these assays, human tumor cells are cultivated in polyvinylidene fluoride (PVDF) hollow fibers, and a sample of each cell line is implanted into each of two physiologic compartments (intraperitoneal and subcutaneous) in mice. Each test mouse receives a total of 6 fibers (3 intraperitoneally and 3 subcutaneously) representing 3 distinct cancer cells lines. Three mice are treated with potential antitumor compounds at each of 2 test doses by the intraperitoneal route using a QD×4 treatment schedule. Vehicle controls consist of 6 mice receiving the compound diluent only. The fiber cultures are collected on the day following the last day of treatment. To assess anticancer effects, viable cell mass is determined for each of the cell lines using a formazan dye (MTT) conversion assay. From this, the % T/C can be calculated using the average optical density of the compound treated samples divided by the average optical density of the vehicle controls. In addition, the net increase in cell mass can be determined for each sample as a sample of fiber cultures are assessed for viable cell mass on the day of implantation into mice. Thus, the cytostatic and cytocidal capacities of the test compound can be assessed.
This represents a total of 4 experiments since each experiment contains 3 cell lines. […]

L. major = L. major footpad infection in Balb/c mice; format: in vivo; conditions: 80 mg/kg/day intraperitoneally in corn oil for seven days
Protocol: Compound 1 dissolved in corn oil was administered intraperitoneally to Balb/c mice (Ball State University colony) at 80 mg/kg/day for seven days beginning one day prior to injection of 5×10^6 L. major promastigotes in medium 199 in the hind foot. Control mice received an equivalent amount of corn oil and L. major. Beginning on day 8, the thickness of the footpads top to bottom was measured using a vernier caliper. Footpad swelling indicates progression of the disease. The percent increase in footpad size was calculated as: [formula]
The percent increase in footpad size is for triplicate mice in the control group and duplicate mice in the treated group.

[14] = system: K/1-NRKE tumor (ras^K-transformed NRKE cells)
[15] = Solubility in dosing vehicle; format: physicochemical; conditions: 10 percent emulphor 620 in Dulbecco's phosphate buffered saline
Protocol: CY was dissolved in isotonic saline, 20 and 21 were dissolved in corn oil, and 1 was dissolved in 10 percent emulphor 620 in Dulbecco's phosphate buffered saline. […] Starting 1 day after tumor implantation, drugs were administered interperitoneally (IP) at the doses given in Table X. CY and compounds 20 and 21 were given once daily for 8 days. Compound 1 was administered in three doses per day at lower dose levels, and the animals were treated for 7 days. On day 10, tumor masses, percent inhibition of tumor growth, and weight changes were determined.

[16] = 120 h, read-out: LC50 3LL, Table VII, concentration giving 50% cell kill, 5 days exposure
[17] = read-out: LC50 3LL, second table headed TABLE VIII

Row | SMILES | Differential Index H/1.2 [1] | Activity (Average PG for highest dose tested) Ovarian Cancer [2] | CC50 [3, 16] | CC50 ([3]; read-out: LC50 3LL, Table VIII) | CC50 [3, 17] | Differential Index N/4.2 [5] | Activity (Average PG for highest dose tested) Colon Cancer (Colon Cancer cell lines) | Activity (Average PG for highest dose tested) Renal Cancer (Renal Cancer cell lines) | Activity (Average PG for highest dose tested) Non-Small Cell Lung Cancer [6] | Activity (Average PG for highest dose tested) CNS Cancer (CNS Cancer cell lines) | Activity (Average PG for highest dose tested) Melanoma (Melanoma cell lines) | Activity (Average PG for highest dose tested) Prostate Cancer [9] | Activity (Average PG for highest dose tested) Leukemia (Leukemia cell lines) | Activity (Average PG for highest dose tested) Breast Cancer (Breast Cancer cell lines) | Differential Index 3LL [11] | Differential Index K/1 [12] | also measured
1 | COC(=O)c1nc(-c2ccc3c(n2)C(=O)C(N)=CC3=O)c2[nH]c3ccccc3c2c1C [Compound 55, lavendamycin methyl ester, reference compound] | 0.9 | −43.5% | 500 nM | 500 nM | 500 nM | 1.67 | −20.0% | −63.8% | −60.8% | −39.3% | −53.0% | −31.0% | +30.0% | −43.8% | 0.4 | 3.33 | CC50 ([3]; read-out: LC50 3LL, Table XV (Example 51)): 250 nM; MTD [4]: 400 mg/kg; Selectivity: sensitivity of one of the seven non-small cell lung cancer cell lines relative to average sensitivity of the fifty-five cell lines ([6]; at GI50, TGI and/or LC50): ~100 times more sensitive to compound 55 than the; CC50 ([7]; 120 h, read-out: LC50 K/1, Table VII, concentration giving 50% cell kill, 5 days exposure): 200 nM; CC50 ([7]; read-out: LC50 K/1, Table VIII): 200 nM; CC50 ([7]; read-out: LC50 K/1, Table XV (Example 51)): 30 nM; CC50 ([7]; read-out: LC50 K/1, second table headed TABLE VIII): 200 nM; CC50 [8]: 60 nM; CC50 at 5 days (in vitro): 100 nM; CC50 ([10]; 120 h, read-out: LC50 H/1.2, Table VII, concentration giving 50% cell kill, 5 days exposure): 100 nM; CC50 ([10]; read-out: LC50 H/1.2, Table VIII): 100 nM; CC50 ([10]; read-out: LC50 H/1.2, Table XV (Example 51)): 110 nM; CC50 ([10]; read-out: LC50 H/1.2, second table headed TABLE VIII): 100 nM; selective toxicity (Table IX) ([12]; ras^K cells versus normal cells): 0.5
2 | COC(=O)c1nc(-c2ccc3c(n2)C(=O)C(N)=C(Cl)C3=O)c2[nH]c3ccccc3c2c1C [Compound 58, 6-Chlorolavendamycin methyl ester] | 1.07 | −39.3% |  |  |  | 1.09 | −84.9% | −73.7% | −69.3% | −52.2% | −86.1% | −63.0% | −14.6% | −58.7% | 0.54 | 1.40 | Total Score [13]: 14
3 | COC(=O)c1nc(-c2ccc3c(n2)C(=O)C(NC(C)=O)=CC3=O)c2[nH]c3ccccc3c2c1C [Compound 1, 7-N-Acetyllavendamycin Methyl Ester] |  | +70.0% | > 33000 nM | < 33000 nM | > 33000 nM |  | +80.0% | +63.0% | +42.6% | +60.2% | +80.3% | +89.5% | +36.3% | +47.9% |  |  | adverse effect of administration as measured by weight loss (in words) (L. major): did not. appear to be adversely affected; Number Dead Number Treated ([14]; 10 Mg/Kg/Day IP in three doses per day for 7 days): 0/7; Number Dead Number Treated ([14]; 30 Mg/Kg/Day IP in three doses per day for 7 days): 0/7; Number Dead Number Treated ([14]; 100 Mg/Kg/Day IP in three doses per day for 7 days): 0/7; toxicity in tumor-bearing nude mice (in words) ([14]; mouse, in vivo): little or no toxicity; tumor growth inhibition in vivo (in words) ([14]; summary of Table X): excellent tumor growth inhibition; CC50 ([7]; 120 h, read-out: LC50 K/1): 100 nM; CC50 ([7]; read-out: LC50 K/1): 100 nM; solubility in vehicle (in words) [15]: poorly soluble; CC50 at 5 days (in vitro; rat, LC50 NRKE): 900 nM; CC50 ([10]; 120 h, read-out: LC50 H/1.2): 700 nM; CC50 ([10]; read-out: LC50 H/1.2): 700 nM; selective toxicity against ras^K oncogene bearing tumor cells as compared to the normal, non-transformed cells ([12]; LC50 NRKE divided by LC50 K/1): 9 fold; CC50 ([12]; rat, 5 days): 100 nM
